The source made the active and inactive calls. The rule behind the calls is not given here.
Tests used:
[1] = biological target: T1, 3-hydroxy-3-methylglutaryl-coenzyme A reductase (Homo sapiens) (UniProt P04035); experiment: Inhibition of human HMG-CoA reductase catalytic domain at 10 uM using HMG-CoA as substrate in presence of NADPH by colorimetric method relative to control
T1 sequence (whole entry): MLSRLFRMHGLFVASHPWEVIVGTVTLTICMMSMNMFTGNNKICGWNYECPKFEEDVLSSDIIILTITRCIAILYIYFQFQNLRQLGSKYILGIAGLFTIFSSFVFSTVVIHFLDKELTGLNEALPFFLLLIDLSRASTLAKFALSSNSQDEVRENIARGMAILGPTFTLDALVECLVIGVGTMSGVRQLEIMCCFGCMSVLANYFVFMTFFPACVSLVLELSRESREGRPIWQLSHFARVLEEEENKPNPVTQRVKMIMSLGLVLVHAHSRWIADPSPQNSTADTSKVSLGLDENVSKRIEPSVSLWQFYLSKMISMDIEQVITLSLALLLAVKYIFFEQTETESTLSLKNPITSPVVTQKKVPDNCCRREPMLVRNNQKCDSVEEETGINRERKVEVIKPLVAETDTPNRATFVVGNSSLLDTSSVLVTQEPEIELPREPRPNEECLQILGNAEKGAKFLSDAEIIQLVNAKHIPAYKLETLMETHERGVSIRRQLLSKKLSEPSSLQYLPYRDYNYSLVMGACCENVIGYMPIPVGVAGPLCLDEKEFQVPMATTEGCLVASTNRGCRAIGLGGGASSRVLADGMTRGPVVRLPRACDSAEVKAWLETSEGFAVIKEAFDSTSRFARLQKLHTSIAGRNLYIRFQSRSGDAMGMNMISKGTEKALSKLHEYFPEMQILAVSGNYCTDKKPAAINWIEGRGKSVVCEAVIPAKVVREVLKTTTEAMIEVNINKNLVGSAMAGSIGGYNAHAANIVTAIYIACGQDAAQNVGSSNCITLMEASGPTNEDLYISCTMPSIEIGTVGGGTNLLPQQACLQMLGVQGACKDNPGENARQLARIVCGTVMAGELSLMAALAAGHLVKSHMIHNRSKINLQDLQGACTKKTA

[2] = test system: Rattus norvegicus; experiment: Hypolipidemic activity in HFD-induced Charles Foster rat assessed as increase in serum HDL-TC at 10 mg/kg administered as single dose via oral gavage for 30 days simultaneously with high fat diet; type: functional, organism-based
[3] = test system: Rattus norvegicus; experiment: Antihyperlipidemic activity in triton WR-1339 induced Charles Foster rat hyperlipidemia model assessed as inhibition of triglyceride level in serum at 10 mg/kg, po administered simultaneously with triton WR-1339 after 18 hrs by enzymatic method relative to control; type: functional
[4] = test system: Rattus norvegicus; experiment: Hypolipidemic activity in HFD-induced Charles Foster rat assessed as increase in serum HDL-TG at 10 mg/kg administered as single dose via oral gavage for 30 days simultaneously with high fat diet; type: functional, organism-based
[5] = biological target: T1, 3-hydroxy-3-methylglutaryl-coenzyme A reductase (Homo sapiens); experiment: Inhibition of human HMG-CoA reductase catalytic domain at 50 uM using HMG-CoA as substrate in presence of NADPH by colorimetric method relative to control
[6] = test system: Rattus norvegicus; experiment: Antihyperlipidemic activity in triton WR-1339 induced Charles Foster rat hyperlipidemia model assessed as inhibition of phospholipid level in serum at 10 mg/kg, po administered simultaneously with triton WR-1339 after 18 hrs by enzymatic method relative to control; type: functional
[7] = test system: Rattus norvegicus; experiment: Hypolipidemic activity in HFD-induced Charles Foster rat assessed as reduction in serum VLDL-TC at 10 mg/kg administered as single dose via oral gavage for 30 days simultaneously with high fat diet; type: functional, organism-based
[8] = test system: Rattus norvegicus; experiment: Hypolipidemic activity in HFD-induced Charles Foster rat chronic hyperlipidemia model assessed as reduction in serum triglyceride level at 10 mg/kg administered via oral gavage for 30 days simultaneously with high fat diet by enzymatic method relative to HFD treated vehicle; type: functional; conditions: 720 h
[9] = biological target: T1, 3-hydroxy-3-methylglutaryl-coenzyme A reductase (Homo sapiens); experiment: Inhibition of human HMG-CoA reductase catalytic domain at 1 uM using HMG-CoA as substrate in presence of NADPH by colorimetric method relative to control
[10] = test system: Rattus norvegicus; experiment: Antihyperlipidemic activity in triton WR-1339 induced Charles Foster rat hyperlipidemia model assessed as inhibition of total cholesterol level in serum at 10 mg/kg, po administered simultaneously with triton WR-1339 after 18 hrs by enzymatic method relative to control; type: functional
[11] = biological target: T1, 3-hydroxy-3-methylglutaryl-coenzyme A reductase (Homo sapiens); experiment: Inhibition of human HMG-CoA reductase catalytic domain at 5 uM using HMG-CoA as substrate in presence of NADPH by colorimetric method relative to control
[12] = biological target: T1, 3-hydroxy-3-methylglutaryl-coenzyme A reductase (Homo sapiens); experiment: Inhibition of human HMG-CoA reductase catalytic domain at 100 uM using HMG-CoA as substrate in presence of NADPH by colorimetric method relative to control
[13] = test system: Rattus norvegicus; experiment: Hypolipidemic activity in HFD-induced Charles Foster rat assessed as reduction in serum LDL-TC at 10 mg/kg administered as single dose via oral gavage for 30 days simultaneously with high fat diet; type: functional, organism-based
[14] = test system: Rattus norvegicus; experiment: Hypolipidemic activity in HFD-induced Charles Foster rat assessed as increase in human I125-LDL binding to rat liver plasma membrane at 10 mg/kg administered as single dose via oral gavage for 30 days simultaneously with high fat diet by minigamma counting; type: functional, organism-based
[15] = test system: Rattus norvegicus; experiment: Hypolipidemic activity in HFD-induced Charles Foster rat assessed as increase in lipolytic activity of LPL in liver at 10 mg/kg administered as single dose via oral gavage for 30 days simultaneously with high fat diet; type: functional, organism-based
[16] = test system: Rattus norvegicus; experiment: Hypolipidemic activity in HFD-induced Charles Foster rat chronic hyperlipidemia model assessed as reduction in serum total cholesterol level at 10 mg/kg administered via oral gavage for 30 days simultaneously with high fat diet by enzymatic method relative to HFD treated vehicle; type: functional; conditions: 720 h
[17] = test system: Rattus norvegicus; experiment: Hypolipidemic activity in HFD-induced Charles Foster rat assessed as increase in serum LCAT activity at 10 mg/kg administered as single dose via oral gavage for 30 days simultaneously with high fat diet by photometric method; type: functional, organism-based
[18] = test system: Rattus norvegicus; experiment: Hypolipidemic activity in HFD-induced Charles Foster rat assessed as reduction in serum LDL-TG at 10 mg/kg administered as single dose via oral gavage for 30 days simultaneously with high fat diet; type: functional, organism-based
[19] = test system: Rattus norvegicus; experiment: Hypolipidemic activity in HFD-induced Charles Foster rat chronic hyperlipidemia model assessed as reduction in serum ALT level at 10 mg/kg administered via oral gavage for 30 days simultaneously with high fat diet by colorimetric method relative to HFD treated vehicle; type: functional; conditions: 720 h
[20] = test system: Rattus norvegicus; experiment: Hypolipidemic activity in HFD-induced Charles Foster rat chronic hyperlipidemia model assessed as reduction in serum AST level at 10 mg/kg administered via oral gavage for 30 days simultaneously with high fat diet by colorimetric method relative to HFD treated vehicle; type: functional; conditions: 720 h
[21] = test system: Rattus norvegicus; experiment: Hypolipidemic activity in HFD-induced Charles Foster rat assessed as inhibition of hepatic HMG-CoA reductase activity by measuring […] at 10 mg/kg administered as single dose via oral gavage for 30 days simultaneously with high fat diet by colorimetric method; type: functional, organism-based
[22] = biological target: T1, 3-hydroxy-3-methylglutaryl-coenzyme A reductase (Homo sapiens); experiment: Inhibition of human HMG-CoA reductase catalytic domain at 20 uM using HMG-CoA as substrate in presence of NADPH by colorimetric method relative to control
[23] = test system: Rattus norvegicus; experiment: Hypolipidemic activity in HFD-induced Charles Foster rat assessed as reduction in serum VLDL-TG at 10 mg/kg administered as single dose via oral gavage for 30 days simultaneously with high fat diet; type: functional, organism-based
[24] = test system: Rattus norvegicus; experiment: Hypolipidemic activity in HFD-induced Charles Foster rat chronic hyperlipidemia model assessed as reduction in liver triglyceride level at 10 mg/kg administered via oral gavage for 30 days simultaneously with high fat diet by enzymatic method relative to HFD treated vehicle; type: functional; conditions: 720 h
[25] = test system: Rattus norvegicus; experiment: Hypolipidemic activity in HFD-induced Charles Foster rat chronic hyperlipidemia model assessed as reduction in liver total cholesterol level at 10 mg/kg administered via oral gavage for 30 days simultaneously with high fat diet by enzymatic method relative to HFD treated vehicle; type: functional; conditions: 720 h

- inhibition [1]: 60 to 63%
- inhibition [5]: 76%
- inhibition [9]: 20%
- inhibition [11]: 35%
- inhibition [12]: 83%
- inhibition [22]: 69%
Compound: CC(C)c1c(C(=O)Nc2ccccc2)c(-c2ccccc2)c(-c2ccc(F)cc2)n1CC[C@@H](O)C[C@@H](O)CC(=O)O [ATORVASTATIN]
- Activity [2]: Active
- inhibition in vivo at 10 mg/kg [3]: 35%
- Activity [4]: Active
- inhibition in vivo at 10 mg/kg [6]: 35%
- Activity [7]: Active
- inhibition in vivo at 10 mg/kg [8]: 26%
- inhibition in vivo at 10 mg/kg [10]: 36%
- Activity [13]: Active
- Activity [14]: Active
- Activity [15]: Active
- inhibition in vivo at 10 mg/kg [16]: 25%
- Activity [17]: Active
- Activity [18]: Active
- inhibition in vivo at 10 mg/kg [19]: 25%
- inhibition in vivo at 10 mg/kg [20]: 29%
- inhibition [21]: Active
- Activity [23]: Active
- inhibition in vivo at 10 mg/kg [24]: 30%
- inhibition in vivo at 10 mg/kg [25]: 28%

Reference: ChEMBL document CHEMBL3997763 (Medchemcomm, 2016)
